Test results taken from US11311598B2, “Peptides and analogs for use in the treatment of oral mucositis” (Soligenix, Inc., priority 2013, dated 2022).
Where no end group is shown, it is not given here.

Legend:
mouse tongue epithelium = experiment: prevention of radiation-induced mucositis (25 Gy to the mouse snout); assay type: in vivo; details: 25 Gy to mouse snout Day 0; 5 doses of 25 mg/kg IV every second day
Method: RIVPA (SEQ ID NO. 5) and other IDRs modulate the innate defense response to tissue injury, reducing the severity of damage caused by the inflammatory cascade and enhancing resolution of disease. As described above, IDRs can mitigate the response to radiation damage in an oral mucositis model (FIG. 1, FIG. 2). […] Progressive thinning of the mouse tongue was assessed on Days 0, 2, 4, 6, 8, and 10 by histopathological analysis of the number of basal and suprabasal apoptotic, mitotic and total epithelial cells per unit area and per unit length. It is noted that the dose of radiation used (25 Gy) was chosen such that progressive thinning of the tongue epithelium was observed but no overt mucositis occurred.

MRSA (UC6685) = experiment: MRSA peritoneal infection model in combination with vancomycin; assay type: in vivo, mouse; details: female CF-1 mice, 50 mg/kg IV 48 or 72 h prior to inoculation, with vancomycin 3 mg/kg SC 1 and 5 h after infection; 5 days
Method: RIVPA (SEQ ID NO. 5) (50 mg/kg) or saline treatment was administered IV either 48 or 72 h prior to inoculation with MRSA (UC6685; 8.2×10^7 colony forming units [cfu]) to female CF-1 mice (N=10/group). Vancomycin treatment (3 mg/kg) was administered subcutaneously (SC), 1 and 5 h after infection. Survival was monitored once daily for 5 days.

MRSA (strain USA300) = experiment: MRSA bacteremia model in nu/nu mice lacking T-cells; assay type: in vivo, mouse; details: female nu/nu mice, single dose 50 mg/kg IV 4 h prior to infection; 14 days
Method: RIVPA (SEQ ID NO. 5) is also effective when administered by itself. Multiple studies with IV administered RIVPA (SEQ ID NO. 5) were conducted in a MRSA bacteremia model. […] In the first study, MRSA (USA300, 7.3 log 10 cfu) was administered via IV injection into the tail vein of female Balb/c mice at time 0. Four hours prior to infection, a single dose of saline or RIVPA (SEQ ID NO. 5) at the indicated dose levels was injected IV into the tail vein. Sub-optimal antibiotic treatment (linezolid, 6.25 mg/kg) was administered once orally immediately after infection. Survival was monitored for 21 days after the infection. In the second study, RIVPA (SEQ ID NO. 5) (IV) or saline (IV) was administered once 4 h prior to infection with MRSA (strain USA300, 7.0 log10 cfu) via the tail vein into female nu/nu mice. Statistically significant differences (i.e., p≤05) in survival were found with the 50 mg/kg dose level as assessed using Kaplan Meier analysis of each treatment group relative to the saline control.

S. aureus = S. aureus infection studies, single IV RIVPA treatment (Table 2 summary); assay type: in vivo, mouse; details: for % Successful Treatments Any Dose Schedule: success = at least 20% increase in survival over saline control
[1] = test system: S. aureus (Catalog No. 29213, ATCC); experiment: S. aureus thigh abscess infection model in neutropenic mice; assay type: in vivo, mouse; details: neutropenic female Swiss albino mice, 50 mg/kg IM 24 h prior to infection; 24 h after infection
Method: Female Swiss albino mice (N=8/group) were rendered neutropenic by treatment with Cp (100 mg/kg), 3 and 1 days before IM infection with S. aureus (Catalog No. 29213, ATCC, ^˜9.5×10^5 cfu). RIVPA (SEQ ID NO. 5) (50 mg/kg) was administered IM 24 h prior to infection and vancomycin (100 mg/kg) was administered SC at 1, 6 and 18 h after infection. The number of bacterial cfu present in the infected thigh was assessed 24 h after initiation of infection in each group.

mice = experiment: mouse IV toxicity studies (pilot single dose, GLP 14-day, acute); assay type: in vivo
Method: Two pilot and 2 definitive repeat-dose toxicity studies were conducted with RIVPA (SEQ ID NO. 5) in mice and cynomolgus monkeys using the intravenous (IV; slow bolus) route of administration. All studies were conducted by LAB Research Inc., Canada.
These resolved within a few minutes without detectable residual effects.
The safety of multiple daily injections of RIVPA (SEQ ID NO. 5) has also been evaluated in GLP studies in mice and cynomolgus monkeys. In mouse, doses of 20, 60, or 90 mg/kg/day were given IV for 14 days.
The observed respiratory depression occurred at different dose levels in different species, and was not predicted by allometric scaling. In particular, the mouse appeared to be the most sensitive species with acute toxicity occurring rarely at 60 mg/kg (HED: ^˜5 mg/kg) and commonly at 90 mg/kg (HED: ^˜7 mg/kg). In contrast in NHP (cynomologus monkey), acute toxicity occurred occasionally at 160 mg/kg (HED: ^˜50 mg/kg) and consistently at 240 mg/kg (HED: ^˜78 mg/kg).

[2] = test system: central nervous system (CNS); experiment: effects on the central nervous system in any study; assay type: in vivo; details: any study at any dose level
Method: No effects of RIVPA (SEQ ID NO. 5) have been observed on the central nervous system (CNS) in any study at any dose level and little or no radiolabelled RIVPA (SEQ ID NO. 5) was found in the mouse CNS at dose levels of either 20 or 90 mg/kg.

CD-1 mice = experiment: recovery of circulating blood cells after induction of leukopenia; assay type: in vivo, mouse; details: Cp-induced leukopenia, 20 or 50 mg/kg IV on Days 5, 7, 9 and 11
Method: Leukopenia was induced with 2 IP injections of Cp (150 mg/kg on Day 1 and 100 mg/kg on Day 4), resulting in well-established leukopenia by Day 4 that persisted until approximately Day 10. Saline or RIVPA (SEQ ID NO. 5) (20 or 50 mg/kg) was administered IV on Days 5, 7, 9 and 11. Six animals per group were sacrificed on each of Days 6, 8, 10, 12 and 14 and evaluated for complete blood count and differential. Neither the levels nor dynamics of the total leukocyte and differential white blood cell counts were altered during the course of recovery when compared to the vehicle control group (FIG. 15).

metabolism and excretion = details: in vivo
[3] = test system: Gram-positive and Gram-negative infections; details: mouse, in vivo
[4] = mice

Substance: RIVPA-NH2 [RIVPA (SEQ ID NO. 5), RIVPA]
- disease progression (progressive thinning of the mouse tongue) (mouse tongue epithelium): did not have any significant impact
- survival (MRSA (UC6685)): increased survival
- survival over the saline control (MRSA (strain USA300)): statistically significant enhanced survival
- dose dependence of effects (S. aureus; between 1 and 50 mg/kg in mouse): dose dependent
- dose levels consistently demonstrating efficacy (S. aureus; mouse, stand-alone IV): ≥ 25 mg/kg
- % Successful Treatments RIVPA administered 4 h prior to infection (S. aureus; single IV dose 1 mg/kg): 0%
- % Successful Treatments Any Dose Schedule (S. aureus; single IV dose 1 mg/kg): 0%
- % Successful Treatments RIVPA administered 4 h prior to infection (S. aureus; single IV dose 5 mg/kg): 33%
- % Successful Treatments Any Dose Schedule (S. aureus; single IV dose 5 mg/kg): 42%
- % Successful Treatments RIVPA administered 4 h prior to infection (S. aureus; single IV dose 25 mg/kg): 50%
- % Successful Treatments Any Dose Schedule (S. aureus; single IV dose 25 mg/kg): 67%
- % Successful Treatments RIVPA administered 4 h prior to infection (S. aureus; single IV dose 50 mg/kg): 100%
- % Successful Treatments Any Dose Schedule (S. aureus; single IV dose 50 mg/kg): 100%
- bacterial load in the infected thigh [1]: significantly reduced
- immune-related organ weights, histopathology, hematology and clinical chemistry (mice; mouse 14-day toxicity study): no changes were observed
- adverse effects (mice; mouse, 20 mg/kg for 14 days): No adverse effects were observed
- mortality or clinical signs (mice; mouse, 20 mg/kg/day IV for 14 days): No test article-related mortality or clinical signs
- HED of acutely toxic dose (mice; mouse, 60 mg/kg): ~5 mg/kg
- occurrence of acute toxicity (respiratory depression) (mice; mouse, 60 mg/kg): rarely
- mortality (mice; mouse, 60 mg/kg/day IV for 14 days): Lethality was also observed in 1 animal
- HED of acutely toxic dose (mice; mouse, 90 mg/kg): ~7 mg/kg
- occurrence of acute toxicity (respiratory depression) (mice; mouse, 90 mg/kg): commonly
- mortality (mice; mouse, 90 mg/kg/day IV for 14 days): Deaths were observed
- organ toxicity, biochemistry, hematology (mice; mouse, survivors of all groups, 14 days): no evidence of toxicity in any organ or abnormal biochemistry or hematology
- effects on the central nervous system (CNS) [2]: No effects
- recovery of circulating blood cell populations after induction of leukopenia (CD-1 mice): did not alter
- primary metabolism (metabolism and excretion): proteases throughout body tissues
- role of urine, feces and bile excretion in clearance (metabolism and excretion): very minor role
- duration of pharmacodynamic effect [3]: up to 5 days
- dose levels with consistent efficacy ([3]; iv): ≥ 25 mg/kg
- PK clearance from the circulation [4]: within minutes
